pIC50, pKi: −log10 of the molar value. Like-named read-outs stand apart in the source and are kept apart here.
Tests used:
5-HT1A receptor = target: T1, 5-HT1A receptor (Rattus norvegicus, UniProt P19327); experiment: biochemical; type: binding; design: 47: 529-540 (1986); from tissue; host or cells: brain tissue, inferred from the cited method (rat frontal cortex); settings: for Ratio 5-HT1A /σ / pIC50: Table 5; for pIC50: read-out: 5-HT1A IC50; for IC50: Table 6, read-out: 5HT-1A (nM) MEAN
T1 sequence (P19327 1-422): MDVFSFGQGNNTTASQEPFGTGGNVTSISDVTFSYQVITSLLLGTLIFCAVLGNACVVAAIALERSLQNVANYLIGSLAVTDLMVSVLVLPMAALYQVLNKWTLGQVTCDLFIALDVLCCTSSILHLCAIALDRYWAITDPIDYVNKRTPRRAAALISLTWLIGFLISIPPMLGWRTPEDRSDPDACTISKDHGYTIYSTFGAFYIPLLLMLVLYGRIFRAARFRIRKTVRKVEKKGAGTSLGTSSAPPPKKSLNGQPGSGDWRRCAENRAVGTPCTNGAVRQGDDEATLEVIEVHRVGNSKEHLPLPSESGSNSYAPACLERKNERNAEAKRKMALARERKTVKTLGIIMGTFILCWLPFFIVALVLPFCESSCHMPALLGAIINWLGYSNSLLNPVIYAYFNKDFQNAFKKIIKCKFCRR
Procedure: Further sigma receptor binding assays against [^3 H]DTG and 5HT-1A binding assays were conducted according to the procedure outlined in the previous examples.

PCP receptor = PCP receptor binding, ^3 H-MK-801; design: species or system rat; settings: Table 4
Procedure: PCP receptor binding assays against ^3 H-MK-801 were conducted as described by Keana et al., Proc. Natl. Acad. Sci (USA) 86: 5631-5635 (1989); Keana et al., Life Sciences 43: 965-973 (1988). For (+) ^3 H-MK-801 binding, 1 nM of radioligand was incubated with about 100 ug of thawed rat brain membrane protein for 4 hr at room temperature. The assays were carried out in 5 mM Tris/acetate and were stopped by rapid filtration through Whatman GF/B or Schleicher & Schuell no. 32 glass fiber filters (presoaked in 0.05% polyethylenamine).

sigma receptor = experiment: Sigma receptor binding, [^3 H]DTG, brain membranes (both sigma-1 and sigma-2 sites); design: species or system guinea pig; settings: for IC50: Table 6
sigma-2 binding site = target: T2, sigma-2 binding site (Cavia porcellus, UniProt H0V073); experiment: biochemical; design: species or system guinea pig; settings: for IC50: Table 18, read-out: IC50 (nM) at sigma-2; for pIC50: read-out: sigma-2 IC50
T2 construct: Guinea pig whole membrane preparations (P2 microsomal fraction); from tissue; host or cells: guinea pig membranes (P2 microsomal fraction), as described by Weber et al; brain inferred from the sister test b489
T2 sequence (H0V073 1-176): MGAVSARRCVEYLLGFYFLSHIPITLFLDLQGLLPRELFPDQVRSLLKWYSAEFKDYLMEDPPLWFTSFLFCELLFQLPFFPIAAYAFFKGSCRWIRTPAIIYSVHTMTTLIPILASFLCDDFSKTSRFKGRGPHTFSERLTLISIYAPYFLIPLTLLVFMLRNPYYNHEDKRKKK
Procedure: For the standard equilibrium assay, the mixtures were incubated for 30 min. at room temperature, then filtered and the radioactivity determined as described above.

sigma-1 binding site = target: T3, sigma-1 binding site (Cavia porcellus, UniProt Q60492); experiment: biochemical; design: species or system guinea pig
T3 construct: Guinea pig whole membrane preparations (P2 microsomal fraction); from tissue; host or cells: guinea pig membranes (P2 microsomal fraction), as described by Weber et al; brain inferred from the sister test b489
T3 sequence (Q60492 whole entry): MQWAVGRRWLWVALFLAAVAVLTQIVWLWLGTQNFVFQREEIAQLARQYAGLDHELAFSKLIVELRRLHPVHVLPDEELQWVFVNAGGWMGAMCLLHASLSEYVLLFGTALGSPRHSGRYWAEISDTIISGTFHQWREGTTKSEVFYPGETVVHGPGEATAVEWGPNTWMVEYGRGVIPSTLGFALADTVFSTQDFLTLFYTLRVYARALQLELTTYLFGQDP
Procedure: [^3 H]DTG was purchased from DuPont/NEN.
The radioactivity on the filters was determined by scintillation spectrometry at an efficiency of about 50% using Cytoscint (ICN) scintillation fluid.

[1] = Table 10, read-out: SIGMA-2 KI vs. 3H-DTG + PENTAZOCINE MEAN
[2] = Table 7, Phenyl-(CH2)x -NH--(CH2)y -Phenyl, read-out: Ki
[3] = Table 10, read-out: SIGMA-1 KI vs. 3H-PENTAZOCINE MEAN
[4] = less than about 0.1, see Table 10

SMILES | Ratio 5-HT1A /σ (5-HT1A receptor) | pIC50 (5-HT1A receptor) | pIC50 (PCP receptor) | also measured
C[C@H](Cc1ccccc1)NCCC(=O)c1ccccc1 [Compound 9] | 2 | 6.91 | < 5.00 | 
C[C@@H](Cc1ccccc1)NCCc1ccccc1 [Compound 27] | 200 | 5.19 | < 5.00 | 
CCN[C@H](C)Cc1ccccc1 [Compound 4] | 5.9 | 5.39 | < 5.00 | 
C[C@@H](N)Cc1ccc(I)cc1 [Compound 29] | 3.1 | 4.81 | < 5.00 | 
c1ccc(CN2CCOC(c3ccccc3)C2)cc1 (centres unmarked) [Compound 35] | 40 | 4.98 | < 5.00 | 
C[C@H](Cc1ccccc1)NCCOc1ccccc1 [Compound 8] | .92 | 7.36 | < 5.00 | change in sigma receptor affinity vs. analog (sigma receptor; Examples 5 and 6, [^3 H]DTG): about 7 fold
Clc1ccc(C2=CCN(CCCCc3ccccc3)CC2)cc1 [Compound 38] | 25 | 6.97 | < 5.00 | 
CCCN[C@H](C)Cc1ccccc1 [Compound 5] | .88 | 5.82 | < 5.00 | 
c1ccc(CCCCN2CCN(c3ccccc3)CC2)cc1 [Compound 48] | 2.3 | 8.20 | < 5.00 | 
C[C@@H](Cc1ccccc1)NCCCc1ccccc1 [Compound 43, N-(3-phenylpropyl)-1-pheny1-2-propylamine] |  | 5.95 | < 5.00 | pKi (sigma-2 binding site; [1]): 7.43; 5-HT1A affinity relative to antipode (5-HT1A receptor; S(+) isomer of cmp. #1): only one-tenth the affinity of its antipode
c1ccc(CCCN2CCN(c3ccccc3)CC2)cc1 [Compound 46] | 3 | 7.67 | < 5.00 | 
CC(Cc1ccccc1)NCC1CC1 (centres unmarked) [Compound 24] | 1.4 | 6.02 | < 5.00 | 
CC(NCCCc1ccccc1)C(=O)c1ccccc1 (centres unmarked) [Compound 13] | 2 | 6.54 | < 5.00 | 
C[C@H](N[C@@H](C)Cc1ccccc1)c1ccccc1 [Compound 26] | 3.5 | 5.00 | < 5.00 | 
C[C@H](Cc1ccccc1)NCC#Cc1ccccc1 [Compound 25] | 7.3 | 6.12 | < 5.00 | 
c1ccc(CCCCCNCCCCc2ccccc2)cc1 [Compound 76, N-(5-phenylpentyl)-(4-phenyl)butylamine] |  |  |  | pKi (sigma-2 binding site; [1]): 7.17; IC50 (sigma-2 binding site): 48 nM; IC50 (sigma receptor; [^3 H]DTG): 2.65 nM; pKi (sigma receptor; [2]): 8.60; IC50 (5-HT1A receptor): 119 nM; pIC50 (sigma-1 binding site): 9.32; IC50 ratio of sigma-1/sigma-2 (sigma-1 selective compounds) (sigma-1 binding site): less than 0.1; pKi (sigma-1 binding site; SIGMA-1 KI vs. 3H-P[…]): 9.32; S1/S2 Ratio (sigma-1 binding site; guinea pig, microsomes): 0.007
CC(Cc1ccc2ccccc2c1)NCCCc1ccccc1 (racemic) [Compound 17, (±) N-[1-(2'-Naphthyl)-2-propyl]-3-phenylpropylamine] |  | 7.06 | < 5.00 | pKi (sigma-2 binding site; [1]): 6.65
FC(F)(F)c1cccc(N2CCN(CCCCc3ccccc3)CC2)c1 [Compound 47] | 1.6 | 8.03 | < 5.00 | 
C[C@@H](Cc1ccccc1)N(C)CCCc1ccccc1 [Compound 113, N-Methyl-N-(3-phenylpropyl)-1-phenylisopropylamine] |  |  |  | pKi (sigma-2 binding site; [1]): 8.31; IC50 (sigma receptor; [^3 H]DTG): 2.22 nM; IC50 (5-HT1A receptor): 2150 nM; pKi (sigma-1 binding site; [3]): 9.29; S1/S2 Ratio (sigma-1 binding site; Table 10, sigma-1/sigma-2): 0.105; IC50 ratio of sigma-1/sigma-2 (sigma-1 selective compounds) (sigma-1 binding site; [4]): less than 0.1

SMILES | Ratio 5-HT1A /σ (5-HT1A receptor) | pIC50 (5-HT1A receptor) | pIC50 (PCP receptor) | also measured
CN1CCN(CC/C=C\c2cccc(C(F)(F)F)c2)CC1 [Compound 105, N-(4-(3-trifluoromethyl)-3-(Z)-butenyl)-N-methylpiperazine] |  |  |  | pKi (sigma-2 binding site; [1]): 6.75; IC50 (sigma receptor; [^3 H]DTG): 9.5 nM; IC50 (5-HT1A receptor): 4960 nM; pKi (sigma-1 binding site; [3]): 8.82; S1/S2 Ratio (sigma-1 binding site; Table 10, sigma-1/sigma-2): 0.008; IC50 ratio of sigma-1/sigma-2 (sigma-1 selective compounds) (sigma-1 binding site; [4]): less than 0.1
CC(Cc1ccc2ccccc2c1)NCCCc1ccccc1 (centres unmarked) [Compound 18, N-(3-phenylpropyl)-1-(2-naphthyl)-2-propylamine] |  | 6.23 | < 5.00 | pKi (sigma-2 binding site; [1]): 7.82
c1ccc(CCCCCNCCCc2ccccc2)cc1 [Compound 111, N-(5-phenylpentyl)-3-phenylpropylamine] |  |  |  | pKi (sigma-2 binding site; [1]): 8.01; IC50 (sigma-2 binding site): 9.8 nM; IC50 (sigma receptor; [^3 H]DTG): 2.73 nM; pKi (sigma receptor; [2]): 8.74; IC50 (5-HT1A receptor): 92.2 nM; pKi (sigma-1 binding site; [3]): 9.55; S1/S2 Ratio (sigma-1 binding site; Table 10, sigma-1/sigma-2): 0.029; IC50 (sigma-1 binding site; Table 15, read-out: IC50 (nM) at sigma-1): 0.28 nM; IC50 ratio of sigma-1/sigma-2 (sigma-1 selective compounds) (sigma-1 binding site; [4]): less than 0.1
Clc1cccc(N2CCN(CCCc3ccccc3)CC2)c1 [Compound 33] | 2.6 | 7.29 | < 5.00 | 
CN[C@H](C)Cc1ccccc1 [Compound 3] |  | 5.75 | < 5.00 | 
c1ccc(CCCCCCCNCCc2ccccc2)cc1 [Compound 91, N-(7-phenylheptyl)phenethylamine] |  |  |  | pKi (sigma-2 binding site; [1]): 7.48; IC50 (sigma receptor; [^3 H]DTG): 4.07 nM; pKi (sigma receptor; [2]): 8.39; IC50 (5-HT1A receptor): 732 nM; IC50 ratio of sigma-1/sigma-2 (sigma-1 selective compounds) (sigma-1 binding site): less than 0.1; pKi (sigma-1 binding site; [3]): 8.83; S1/S2 Ratio (sigma-1 binding site; guinea pig, microsomes): 0.044; pKi (sigma-1 binding site; sigma-1 binding affinity): 8.82
C[C@@H](N)Cc1ccc([N+](=O)[O-])cc1 [Compound 30] | 2.6 | 4.26 | < 5.00 | 
c1ccc(CCCCNCc2ccccc2)cc1 [Compound 75, N-(4-phenylbutyl)benzylamine] |  |  |  | pIC50 (sigma-2 binding site; Example 9): 6.80; pKi (sigma-2 binding site; [1]): 6.79; IC50 (sigma receptor; [^3 H]DTG): 13.6 nM; pKi (sigma receptor; [2]): 7.89; IC50 (5-HT1A receptor): 255 nM; pKi (sigma-1 binding site; [3]): 8.02; S1/S2 Ratio (sigma-1 binding site; Table 10, sigma-1/sigma-2): 0.059; IC50 ratio of sigma-1/sigma-2 (sigma-1 selective compounds) (sigma-1 binding site; [4]): less than 0.1
CC(Cc1cccc2ccccc12)NCCCc1ccccc1 (racemic) [Compound 16, (±) N-[1-(1'-Naphthyl)-2-propyl]-3-phenylpropylamine] |  | 7.35 | < 5.00 | pKi (sigma-2 binding site; Example 9, read-out: sigma-2 binding affinity): 6.82; pKi (sigma-2 binding site; [1]): 6.82
C[C@@H](Cc1ccccc1)NCCCc1ccc2ccccc2c1 [Compound 42] | 110 | 6.24 | < 5.00 | 
c1ccc(CCCNC2Cc3ccccc3C2)cc1 [Compound 14] | 5.4 | 6.81 | < 5.00 | 
C[C@@H](N)Cc1ccccc1 [Compound 28] |  |  | < 5.00 | 
c1ccc(CCCN2CCN(c3ccc4ccccc4c3)CC2)cc1 [Compound 50] | 94 | 6.55 | < 5.00 | 
c1ccc(CCCNC2CCc3ccccc3C2)cc1 (centres unmarked) [Compound 31] | .92 | 7.71 | < 5.00 | 
CCCN(C)CCCCCc1ccccc1 [Compound 112, N-methyl-N-propyl-5-phenylpentylamine] |  |  |  | pIC50 (sigma-2 binding site; Example 9): 7.40; pKi (sigma-2 binding site; [1]): 7.39; IC50 (sigma receptor; [^3 H]DTG): 2.65 nM; pKi (sigma receptor; running text, Examples 5 and 6, listed as N-methyl-N-propyl-5-phenylpentylamine, read-out: sigma receptor Ki): 8.66; IC50 (5-HT1A receptor): 8240 nM; pIC50 (sigma-1 binding site; Example 8, read-out: sigma-1 IC50, text): 9.54; pKi (sigma-1 binding site; read-out: SIGMA-1 KI vs. 3H-P[…]): 9.54
FC(F)(F)c1cccc(N2CCN(CCc3ccccc3)CC2)c1 [Compound 37] | 2.6 | 7.69 | < 5.00 | 
C[C@H](Cc1ccccc1)NCc1ccccc1 [Compound 6] | 31 | 5.42 | < 5.00 | 
c1ccc(CCCN2CCC(c3ccccc3)CC2)cc1 [Compound 39] | 75 | 7.05 | < 5.00 | 

Reference: patent publication US6057371A, “Sigma receptor ligands and the use thereof” (Virginia Commonwealth University, priority 1992, dated 2000)
